Measurements reported in patent publication US20110021625A1, “NEURONAL CELL DEATH INHIBITOR” (LEAD CHEMICAL CO., LTD., priority 2008, published 2011).

What was measured:
Type in all cases: cell-based, SD rats
[1] = test system: rat cerebral cortical neurons treated with Aβ(25-35); assay: Measurement of neuronal cell death induced by Aβ(25-35) (calcein AM uptake, cell viability); details: 10 μM Aβ(25-35) and Compound 11 100 nM, 8-well culture slide, 4 days; FIG. 2; vs control group
Experimental: Cerebral cortical neurons of SD rats (embryonic day 18) were primary cultured. The neurons were seeded in a 24-well culture dish at a density of 2.86×10^5 cells/cm^2, and after 3 days, simultaneously treated with 10 μM partial peptide including the 25 to 35-amino acid residue of Aβ (hereinafter called Aβ(25-35)) and each of Compounds 1 to 5 (100 nM). After another 4 days, 6 μM calcein AM was added, the whole was incubated for 40 minutes at 37° C., and the fluorescence intensity at 485 nm was measured so that the uptake of calcein AM into the neurons was calculated to determine the cell viability. The group without the Aβ(25-35) treatment and the administration of any medical agents was defined as a control group, and the group with the Aβ(25-35) treatment but without the administration of any medical agents was defined as a vehicle group.
Separately, the neurons were seeded in an 8-well culture slide at a density of 2.14×10^5 cells/cm^2, and after 5 days, simultaneously treated with 10 μM Aβ(25-35) and Compound 11 (100 nM). After another 4 days, 6 μM calcein AM was added, and the whole was incubated for 40 minutes at 37° C. Then the neurons were fixed, and the fluorescence image was obtained under a fluorescence microscope AX-80. The uptake of calcein AM into the neurons was quantitatively analyzed with an ATTO Densitograph (ATTO, Tokyo, Japan) to determine the cell viability. […]

[2] = test system: rat cerebral cortical neurons treated with Aβ(1-42); assay: Measurement of axon atrophy induced by Aβ(1-42) (phosphorylated neurofilament H immunostaining); details: 5 μM Aβ(1-42), after 3 days each of Compounds 5, 11, 21, and 22 (1 μM), another 5 days; FIG. 6; vs control group
Experimental: Cerebral cortical neurons of SD rats (embryonic day 18) were primary cultured. The neurons were seeded in an 8-well culture slide at a density of 2.6×10^5 cells/cm^2, after 5 days, treated with 5 μM Aβ(1-42), and after another 3 days, treated with each of Compounds 5, 11, 21, and 22 (each 1 μM). After another 5 days, immunostaining was carried out. The used primary antibody was a mouse monoclonal antibody against phosphorylated neurofilament H that is a marker protein of the axon (a dilution degree of 500; Sternberger Monoclonals, MD, USA). The used secondary antibody was Alexa Fluor 488 labeled goat anti-[…] IgG (a dilution degree of 300; Molecular Probes, Carlsbad, Calif., USA). The neurons were observed under a fluorescence microscope AX-80 (Olympus, Tokyo, Japan) and the fluorescence image was obtained. The average length of the axons per neuron was measured with Neurocyte Ver. 1.5 (Toyobo, Osaka, Japan). The group without the Aβ(1-42) treatment and the administration of any medical agents was defined as a control group, and the group with the Aβ(1-42) treatment but without the administration of any medical agents was defined as a vehicle group.

[3] = test system: rat cerebral cortical neurons treated with Aβ(1-42); assay: Measurement of dendrite atrophy induced by Aβ(1-42) (MAP2 immunostaining); details: 5 μM Aβ(1-42), after 3 days each of Compounds 5, 11, 21, and 22 (1 μM), another 5 days; FIG. 5; vs control group
Experimental: Cerebral cortical neurons of SD rats (embryonic day 18) were primary cultured. The neurons were seeded in an 8-well culture slide at a density of 2.6×10^5 cells/cm^2. After 5 days, the neurons were treated with 5 μM Aβ(1-42), and after another 3 days, treated with each of Compounds 5, 11, 21, and 22 (each 1 μM). After another 5 days, immunostaining was carried out. The used primary antibody was a rabbit polyclonal antibody against MAP2 that is as a marker protein of the dendrite (a dilution degree of 500; Chemicon, Temecula, Calif., USA). The used secondary antibody was Alexa Fluor 568 labeled goat anti-rabbit IgG (a dilution degree of 300; Molecular Probes, Carlsbad, Calif., USA). The neurons were observed under a fluorescence microscope AX-80 (Olympus, Tokyo, Japan) and the fluorescence image was obtained. The average length of the dendrites per neuron was measured with Neurocyte Ver. 1.5 (Toyobo, Osaka, Japan). The group without the Aβ(1-42) treatment and the administration of any medical agents was defined as a control group, and the group with the Aβ(1-42) treatment but without the administration of any medical agents was defined as a vehicle group.

Row | Structure (SMILES) | cell viability (uptake of calcein AM, fluorescence image) [1] | axon outgrowth effect (average length of the axons per neuron) [2] | dendrite outgrowth effect (average length of the dendrites per neuron) [3]
1 | N#CC12CCC3(OCCO3)C3=COC(Cc4ccc(O)cc41)C32 (stereo not drawn) [Compound 11, 9-hydroxy-2,3,5a,10c-tetrahydro-1H,6H-5-oxa-3-oxo-acephenanthrylene-10b-carbonitrile ethylene ketal] | cell viability remarkably higher than that of the control group |  | 
2 | COc1cc2c(cc1O)C1(C#N)CCC3(OCCO3)C3=COC(C2)C31 (stereo not drawn) [Compound 22, 9-hydroxy-8-methoxy-2,3,5a,10c-tetrahydro-1H,6H-5-oxa-3-oxo-acephenanthrylene-10b-carbonitrile ethylene ketal] |  | axon outgrowth effect remarkably higher than that of the control group | dendrite outgrowth effect remarkably higher than that of the control group
